Source: ChEMBL document CHEMBL4706520, “Development of disulfide-derived fructose-1,6-bisphosphatase (FBPase) covalent inhibitors for the treatment of type 2 diabetes” (Eur J Med Chem, 2020)

Columns and labels:
[1] = target: T1, Fructose-1,6-bisphosphatase 1 (Homo sapiens, UniProt P09467); assay: Inhibition of wild-type full-length human liver FBPase expressed in Escherichia coli BL21 (DE3) using FBP as substrate by malachite green dye based assay; format: tissue-based
T1 sequence (P09467 whole entry): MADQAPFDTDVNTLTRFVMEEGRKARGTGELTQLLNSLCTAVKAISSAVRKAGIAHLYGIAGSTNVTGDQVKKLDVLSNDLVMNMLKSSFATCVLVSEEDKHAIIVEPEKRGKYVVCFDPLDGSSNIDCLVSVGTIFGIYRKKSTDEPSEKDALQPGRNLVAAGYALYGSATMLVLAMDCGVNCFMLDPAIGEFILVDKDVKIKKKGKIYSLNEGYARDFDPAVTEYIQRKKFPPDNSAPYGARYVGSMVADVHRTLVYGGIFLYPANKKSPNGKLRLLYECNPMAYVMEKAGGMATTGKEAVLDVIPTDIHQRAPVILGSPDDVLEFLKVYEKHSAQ

[2] = system: HepG2; assay: Cytotoxicity against human HepG2 cells assessed as reduction in cell viability measured after 48 hrs by cell counting kit-8 assay; format: functional, cell-based; conditions: HepG2, 48 h
[3] = system: Mus musculus; assay: Glucose lowering activity in 12 hrs fasting normoglycemic ICR mouse assessed as time for maximum blood glucose reduction at 25 to 50 mg/kg, ip by glucometer; format: functional; conditions: dose 25-50 mg/kg
[4] = system: Mus musculus; assay: Glucose lowering activity in 12 hrs fasting normoglycemic ICR mouse assessed as reduction in blood glucose level at 50 mg/kg, ip measured upto 8 hrs by glucometer; format: functional; conditions: time hrs <=8
[5] = system: Mus musculus; assay: Glucose lowering activity in 12 hrs fasting normoglycemic ICR mouse assessed as reduction in blood glucose level at 25 mg/kg, ip measured upto 8 hrs by glucometer; format: functional; conditions: time hrs <=8

SMILES | IC50 [1] | other results
S=C(SSC(=S)N1CCCc2ccccc21)N1CCCc2ccccc21 | > 10000 nM | –
Clc1ccc(SSc2nccs2)cc1Cl | 2200 nM | –
CN(C)C(=S)SSC(=S)N(C)C [THIRAM] | 2290 nM | –
CCN(CC)C(=O)CSC(=S)N(CC)CC [(DIETHYLCARBAMOYL)METHYLENE DIETHYLCARBAMODITHIOATE] | > 10000 nM | –
S=C(SSC(=S)N1CCCC1)N1CCCC1 [BIS(PYRROLIDINYLTHIOCARBONYL)DISULFIDE] | 2280 nM | –
S=C(SSC(=S)N1CCC1)N1CCC1 | > 10000 nM | –
CN(Cc1ccccc1)C(=S)SSC(=S)N(C)Cc1ccccc1 | > 10000 nM | –
S=C(SSC(=S)n1cccc1)n1cccc1 | 130 nM | IC50 [2]: > 100000 nM; Time [3]: 6 h; inhibition in vivo at 50 mg/kg [4]: 35%
FC(F)(F)c1ccc(SSc2nccs2)cc1 | 2500 nM | –
CN(C(=S)SSC(=S)N(C)c1ccc(-c2ccccc2)cc1)c1ccc(-c2ccccc2)cc1 | > 10000 nM | –
c1nnc(SSc2nncs2)s1 | 560 nM | IC50 [2]: > 100000 nM; inhibition in vivo at 25 mg/kg [5]: 31%; Time [3]: 4 h
C1CCc2sc(SSc3nc4c(s3)CCCC4)nc2C1 | 300 nM | IC50 [2]: 20100 nM; Time [3]: 6 h; inhibition in vivo at 50 mg/kg [4]: 32%
S=C(SSC(=S)n1c2ccccc2c2ccccc21)n1c2ccccc2c2ccccc21 | > 10000 nM | –
c1ccc(SSc2ccccc2)cc1 | > 10000 nM | –
Clc1cccc(SSc2nccs2)c1 | 1250 nM | –
COc1ccc(SSc2nccs2)cc1 | 4440 nM | –
S=C(SSC(=S)N1CC2CCCCC2C1)N1CC2CCCCC2C1 (stereo unspecified) | > 10000 nM | –
Nc1ccc(SSc2nccs2)cc1 | 7600 nM | –
Cc1cccn1C(=S)SSC(=S)n1cccc1C | > 10000 nM | –
Clc1ccc(SSc2nc3ccccc3s2)cc1 | 2680 nM | –
S=C(SSC(=S)n1cccn1)n1cccn1 | 1200 nM | –
c1csc(SSc2cccs2)c1 | 12200 nM | –
S=C(SSC(=S)N1CCCCC1)N1CCCCC1 [BIS(PIPERIDINYLTHIOCARBONYL)DISULFIDE] | 8780 nM | –
Nc1nnc(SSc2ccc(Cl)cc2)s1 | 1940 nM | –
Cn1ccnc1SSc1nccn1C | > 10000 nM | –
CN1CCN(C(=S)SSC(=S)N2CCN(C)CC2)CC1 | > 10000 nM | –
COc1ccc2nc(SSc3nc4ccc(OC)cc4s3)sc2c1 | > 10000 nM | –
Brc1ccc(SSc2nccs2)cc1 | 2050 nM | –
c1ccc2sc(SSc3nc4ccccc4s3)nc2c1 [BENZOTHIAZYL DISULFIDE] | 310 nM | IC50 [2]: > 100000 nM; Time [3]: 6 h; inhibition in vivo at 50 mg/kg [4]: 54%
